Data: article PMC3902031 (Bioorganic & medicinal chemistry, 2013)
Values joined by “and” are separate entries in the source; they are usually repeats but may differ in a detail not shown here. Identical values can stand only once. Like-named read-outs stand apart in the source and are kept apart here.

Experiments:
[1] = tested on: T. cruzi amastigotes; assay: T. cruzi amastigote assays; format: cell-based, Trypanosoma cruzi
[2] = tested on: T. cruzi amastigotes; details: cited from earlier work
[3] = biological target: T1, TcFPPS (T. cruzi farnesyl pyrophosphate synthase) (Trypanosoma cruzi, UniProt Q8WS26); details: cited from earlier work
T1 sequence (Q8WS26 1-425): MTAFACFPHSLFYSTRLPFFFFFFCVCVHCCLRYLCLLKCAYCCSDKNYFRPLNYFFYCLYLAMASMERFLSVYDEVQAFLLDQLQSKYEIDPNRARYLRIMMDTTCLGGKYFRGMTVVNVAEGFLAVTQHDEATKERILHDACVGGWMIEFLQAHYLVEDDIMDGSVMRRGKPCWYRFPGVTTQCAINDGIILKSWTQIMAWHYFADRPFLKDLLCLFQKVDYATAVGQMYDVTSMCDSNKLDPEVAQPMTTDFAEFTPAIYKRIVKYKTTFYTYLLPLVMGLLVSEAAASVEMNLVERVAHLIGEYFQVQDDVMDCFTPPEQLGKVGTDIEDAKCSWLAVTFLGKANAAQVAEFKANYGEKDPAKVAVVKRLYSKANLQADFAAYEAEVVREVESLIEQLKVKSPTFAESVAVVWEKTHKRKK

[4] = biological target: T1, TcFPPS (T. cruzi farnesyl pyrophosphate synthase); assay: TcFPPS enzymatic activity inhibition; format: biochemical
[5] = tested on: T. gondii tachyzoites; assay: T. gondii tachyzoites assays; format: cell-based, Toxoplasma gondii
[6] = tested on: T. gondii tachyzoites; details: positive control; cited from earlier work

In the case of O=C(Cn1ccnc1[N+](=O)[O-])NCc1ccccc1 [Benznidazole, reference compound], the “ED50 T. cruzi amastigotes” value [1] is listed as 1.44 ± 0.97 µM and the “ED50 intracellular T. cruzi proliferation” value [2] is listed as 2.77 µM.

For CCCCCCCCC(F)(P(=O)(O)O)P(=O)(O)O [Compound 10], the “activity against TcFPPS” value [3] is listed as “devoid” and the “cellular activity against T. cruzi” value [2] is listed as “devoid of cellular activity”.

For CCCCCCCCCC(F)(P(=O)(O)O)P(=O)(O)O [Compound 11], the “activity against TcFPPS” value [3] is given as “devoid” and the “cellular activity against T. cruzi” value [2] is given as “devoid of cellular activity”.

For CCCCCCNCC(P(=O)(O)O)P(=O)(O)O [Compound 12], the “ED50 against T. cruzi (amastigotes)” value [2] is listed as 0.84 µM.

In the case of CCCCCCCCCCCCNCC(P(=O)(O)O)P(=O)(O)O [Compound 14], the “ED50 intracellular T. cruzi proliferation” value [2] is listed as 0.67 µM.

For CCCCCNCC(O)(P(=O)(O)O)P(=O)(O)O [Compound 27, 1-[(n-Pentylamino)ethyl]-1-hydroxy-1,1-bisphosphonic Acid], the IC50 [4] was over 10 µM, the “ED50 T. cruzi amastigotes” value [1] was over 20 µM and the “ED50 T. gondii tachyzoites” value [5] was over 10 µM.

For CCCCCCNCC(O)(P(=O)(O)O)P(=O)(O)O [Compound 28, 1-[(n-Hexylamino)ethyl]-1-hydroxy-1,1-bisphosphonic Acid], the IC50 [4] was over 10 µM, the “ED50 T. cruzi amastigotes” value [1] was over 20 µM and the “ED50 T. gondii tachyzoites” value [5] was 4.7 µM and 4.68 ± 1.19 µM.

For CCCCCCCNCC(O)(P(=O)(O)O)P(=O)(O)O [Compound 29, 1-[(n-Heptylamino)ethyl]-1-hydroxy-1,1-bisphosphonic Acid], the “ED50 T. cruzi amastigotes” value [1] was over 20 µM and the “T. gondii tachyzoites, % at 10 μM (printed in the ED50 column)” value [5] was 0.00% at 10 μM.

In the case of CCCCCCCCNCC(O)(P(=O)(O)O)P(=O)(O)O [Compound 30, 1-[(n-Octylamino)ethyl]-1-hydroxy-1,1-bisphosphonic Acid], the “ED50 T. gondii tachyzoites” value [5] is reported as 2.0 µM and 2.00 ± 0.95 µM.

With CCCCCCCCCCNCC(O)(P(=O)(O)O)P(=O)(O)O [Compound 31, 1-[(n-Decylamino)ethyl]-1-hydroxy-1,1-bisphosphonic Acid] the IC50 [4] was over 10 µM and the “T. gondii tachyzoites, % at 10 μM (printed in the ED50 column)” value [5] was 14.9% at 10 μM.

In the case of O=P(O)(O)C(O)(Cc1cccnc1)P(=O)(O)O [Risedronate, risedronate], the “ED50 T. cruzi amastigotes” value [2] is listed as 55.0 ± 5.0[53] μM and the “ED50 T. gondii tachyzoites” value [6] is listed as 2.4 μM and 2.4 ± 0.7[24] μM.
